{"source": "patent US6972296B2", "about": "“Carboxylic acid derivatives that inhibit the binding of integrins to their receptors” (Encysive Pharmaceuticals Inc., priority 1999, dated 2005)", "biological_target": "T1, α4β1 integrin (Homo sapiens, UniProt P05556+P13612)", "T1 construct": "endogenous in cells; host or cells: Ramos cells", "T1 sequence (P13612 34-1032)": "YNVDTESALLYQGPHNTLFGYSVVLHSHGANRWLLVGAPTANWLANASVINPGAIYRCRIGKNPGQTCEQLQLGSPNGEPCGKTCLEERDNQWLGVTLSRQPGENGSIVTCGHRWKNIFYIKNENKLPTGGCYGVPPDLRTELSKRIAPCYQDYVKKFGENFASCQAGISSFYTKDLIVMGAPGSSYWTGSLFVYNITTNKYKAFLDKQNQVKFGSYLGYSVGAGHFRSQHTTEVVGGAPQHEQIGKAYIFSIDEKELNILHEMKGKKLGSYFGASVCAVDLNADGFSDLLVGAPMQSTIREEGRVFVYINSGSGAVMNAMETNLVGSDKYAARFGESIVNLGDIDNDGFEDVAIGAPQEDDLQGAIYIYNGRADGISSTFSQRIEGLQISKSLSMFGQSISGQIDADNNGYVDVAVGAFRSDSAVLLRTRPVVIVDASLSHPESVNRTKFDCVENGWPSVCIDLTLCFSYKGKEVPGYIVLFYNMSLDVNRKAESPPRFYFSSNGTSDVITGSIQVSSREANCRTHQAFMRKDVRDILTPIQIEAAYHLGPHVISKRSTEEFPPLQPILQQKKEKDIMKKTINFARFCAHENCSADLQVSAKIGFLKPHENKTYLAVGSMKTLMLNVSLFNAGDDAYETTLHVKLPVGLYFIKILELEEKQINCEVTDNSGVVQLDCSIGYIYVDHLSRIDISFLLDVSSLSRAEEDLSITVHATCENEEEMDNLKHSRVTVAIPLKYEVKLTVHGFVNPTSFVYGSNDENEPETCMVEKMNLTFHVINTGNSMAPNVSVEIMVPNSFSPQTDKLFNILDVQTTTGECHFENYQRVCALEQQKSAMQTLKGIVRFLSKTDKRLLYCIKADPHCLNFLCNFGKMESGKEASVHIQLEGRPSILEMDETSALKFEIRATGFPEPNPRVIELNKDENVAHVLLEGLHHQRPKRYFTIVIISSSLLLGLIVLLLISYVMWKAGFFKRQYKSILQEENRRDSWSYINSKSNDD", "T1 sequence (P05556 21-798)": "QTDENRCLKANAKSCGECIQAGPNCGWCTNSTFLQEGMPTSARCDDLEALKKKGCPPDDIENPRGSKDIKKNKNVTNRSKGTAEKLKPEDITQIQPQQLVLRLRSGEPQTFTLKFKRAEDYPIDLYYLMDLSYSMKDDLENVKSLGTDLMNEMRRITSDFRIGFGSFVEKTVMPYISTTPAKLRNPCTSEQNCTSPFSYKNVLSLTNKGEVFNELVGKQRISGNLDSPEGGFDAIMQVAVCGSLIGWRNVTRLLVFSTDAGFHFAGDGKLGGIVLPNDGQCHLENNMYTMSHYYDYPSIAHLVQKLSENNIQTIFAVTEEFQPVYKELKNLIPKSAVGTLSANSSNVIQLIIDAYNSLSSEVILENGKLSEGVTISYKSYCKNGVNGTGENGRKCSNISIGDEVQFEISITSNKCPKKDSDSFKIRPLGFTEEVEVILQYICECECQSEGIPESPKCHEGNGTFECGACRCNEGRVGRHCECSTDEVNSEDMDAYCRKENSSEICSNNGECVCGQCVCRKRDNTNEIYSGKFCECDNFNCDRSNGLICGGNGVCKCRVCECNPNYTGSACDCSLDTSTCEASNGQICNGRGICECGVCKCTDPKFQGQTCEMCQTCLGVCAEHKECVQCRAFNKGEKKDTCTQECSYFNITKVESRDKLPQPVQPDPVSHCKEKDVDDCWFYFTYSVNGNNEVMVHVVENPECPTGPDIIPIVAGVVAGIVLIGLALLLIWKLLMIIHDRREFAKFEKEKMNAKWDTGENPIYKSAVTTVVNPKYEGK", "assay": "Adhesion of calcein-labeled Ramos cells to CS1 (fibronectin) peptide conjugated ovalbumin", "format": "cell-based", "settings": "Ramos cell adhesion to CS1 conjugated ovalbumin", "outline": "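Plates bearing CS1 fibronectin peptide coupled to ovalbumin (0.5 μg/ml coat, 3% BSA block) received calcein-labelled Ramos cells plus compound (100 μM stated) for 30 min at 37 °C. Buffer was TBS pH 7.5 with 1 mM Mg2+, Ca2+, Mn2+; bound cells quantified by fluorescence after lysis; […].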", "key": {"[1]": {"settings": "Table 5, dose required to give 50% inhibition"}, "[2]": {"settings": "Table 7, dose required to give 50% inhibition"}}, "data": [{"compound": "Cc1ccc([C@H](CC(=O)O)NC(=O)Nc2c(N3CCOCC3)ccn(Cc3ccccc3Cl)c2=O)cc1", "values": [{"measurement": "IC50", "setting": "Table 3, 30 minutes at 37° C.", "value": 0.001, "unit": "µM"}]}, {"compound": "Cc1ccc([C@H](CC(=O)O)NC(=O)Nc2c(O)ccn(Cc3ccc(F)cc3F)c2=O)cc1", "values": [{"measurement": "IC50", "setting": "[1]", "value": 0.03, "unit": "µM"}]}, {"compound": "O=C(O)C[C@H](NC(=O)N[C@H]1CCCN(Cc2cccs2)C1=O)c1ccc2c(c1)OCO2", "note": "[(3S)-3-(1,3-benzodioxol-5-yl)-3-[({[(3S)-2-oxo-1-(2-thienylmethyl)hexahydro-3-pyridinyl]amino}carbonyl)amino]propanoic acid]", "values": [{"measurement": "IC50", "setting": "Table 2, 30 minutes at 37° C.", "value": 0.2, "unit": "µM"}]}, {"compound": "COCCOc1cccc(Cl)c1Cn1c2c(c(O)c(NC(=O)N[C@@H](CC(=O)O)c3ccc(C)cc3)c1=O)CCC2", "values": [{"measurement": "IC50", "setting": "[2]", "value": 0.006, "unit": "µM"}]}, {"compound": "CCCc1ccc([C@H](CC(=O)O)NC(=O)Nc2c(O)c3c(n(Cc4c(C)cccc4Cl)c2=O)CCC3)cc1", "values": [{"measurement": "IC50", "setting": "[2]", "value": 0.02, "unit": "µM"}]}, {"compound": "Cc1ccc([C@H](CC(=O)O)NC(=O)Nc2cccn(Cc3c(F)cccc3F)c2=O)cc1", "values": [{"measurement": "IC50", "setting": "Table 4, 30 minutes at 37° C.", "value": 0.3, "unit": "µM"}]}, {"compound": "CCOc1cc([C@H](CC(=O)O)NC(=O)Nc2c(O)ccn(Cc3ccccc3Cl)c2=O)ccc1OC", "note": "[(3S)-3-[({[1-(2-chlorobenzyl)-4-hydroxy-2-oxo-1,2-dihydropyridin-3-yl]amino}carbonyl)amino]-3-(3-ethoxy-4-methoxyphenyl)propanoic acid]", "values": [{"measurement": "IC50", "setting": "[1]", "value": 0.002, "unit": "µM"}]}, {"compound": "Cc1ccc([C@H](Cc2nnn[nH]2)NC(=O)Nc2c(O)c(C)cn(Cc3ccccc3Cl)c2=O)cc1", "values": [{"measurement": "IC50", "setting": "[2]", "value": 6, "unit": "µM"}]}, {"compound": "Cc1ccc([C@H](CC(=O)O)NC(=O)Nc2cccn(Cc3c(Cl)cccc3[N+](=O)[O-])c2=O)cc1", "values": [{"measurement": "IC50", "setting": "Table 4, 30 minutes at 37° C.", "value": 4, "unit": "µM"}]}, {"compound": "Cc1ccc([C@H](CC(=O)O)NC(=O)Nc2cccn(Cc3ccccc3[N+](=O)[O-])c2=O)cc1", "values": [{"measurement": "IC50", "setting": "Table 4, 30 minutes at 37° C.", "value": 1, "unit": "µM"}]}, {"compound": "O=C(O)CC(NC(=O)Nc1c(O)c2c(n(Cc3ccccc3Cl)c1=O)CCC2)c1ccc(-c2ccccc2)cc1", "note": "(stereo not shown)", "values": [{"measurement": "IC50", "setting": "[2]", "value": 0.03, "unit": "µM"}]}, {"compound": "COCCOc1cccc([C@H](CC(=O)O)NC(=O)Nc2c(O)ccn(Cc3ccccc3Cl)c2=O)c1", "note": "[(3S)-3-[({[1-(2-chlorobenzyl)-4-hydroxy-2-oxo-1,2-dihydropyridin-3-yl]amino}carbonyl)amino]-3-[3-(2-methoxyethoxy)phenyl]propanoic acid]", "values": [{"measurement": "IC50", "setting": "[1]", "value": 0.003, "unit": "µM"}]}, {"compound": "COc1ccc2cc([C@H](CC(=O)O)NC(=O)Nc3c(O)c4c(n(Cc5ccccc5Cl)c3=O)CCC4)ccc2c1", "values": [{"measurement": "IC50", "setting": "[2]", "value": 0.003, "unit": "µM"}]}, {"compound": "O=C(O)C[C@H](NC(=O)Nc1cccn(CC2CCCC2)c1=O)c1ccc2c(c1)OCO2", "note": "[(3S)-3-(1,3-benzodioxol-5-yl)-3-[({[1-(cyclopentylmethyl)-2-oxo-1,2-dihydro-3-pyridinyl]amino}carbonyl)amino]propanoic acid]", "values": [{"measurement": "IC50", "setting": "Table 4, 30 minutes at 37° C.", "value": 6, "unit": "µM"}]}, {"compound": "Cc1ccc([C@H](CC(=O)O)NC(=O)Nc2c(O)c(C)cn(Cc3c(F)cccc3F)c2=O)cc1", "values": [{"measurement": "IC50", "setting": "Table 6, 30 minutes at 37° C.", "value": 0.025, "unit": "µM"}]}, {"compound": "O=C(O)C[C@H](NC(=O)Nc1cccc(Oc2ccccc2)c1)c1ccc2c(c1)OCO2", "values": [{"measurement": "IC50", "setting": "Table 4, 30 minutes at 37° C.", "value": 50, "unit": "µM"}]}, {"compound": "CCOc1cccc(Cl)c1Cn1c2c(c(O)c(NC(=O)N[C@@H](CC(=O)O)c3cccc(CC(C)C)c3)c1=O)CCC2", "values": [{"measurement": "IC50", "setting": "[2]", "value": 0.004, "unit": "µM"}]}, {"compound": "Cc1ccc([C@H](CC(=O)O)NC(=O)Nc2cccn(Cc3cc(Cl)ccc3F)c2=O)cc1", "values": [{"measurement": "IC50", "setting": "Table 4, 30 minutes at 37° C.", "value": 2.5, "unit": "µM"}]}, {"compound": "Cc1ccc(C)c([C@H](CC(=O)O)NC(=O)Nc2c(O)ccn(Cc3ccccc3Cl)c2=O)c1", "values": [{"measurement": "IC50", "setting": "[1]", "value": 0.05, "unit": "µM"}]}, {"compound": "Cc1ccc([C@H](CC(=O)O)NC(=O)Nc2c(O)ccn(Cc3ccc(Cl)cc3Cl)c2=O)cc1", "values": [{"measurement": "IC50", "setting": "[1]", "value": 0.06, "unit": "µM"}]}, {"compound": "Cc1ccc([C@H](CC(=O)O)NC(=O)Nc2c(O)c(Cl)cn(Cc3ccccc3Cl)c2=O)cc1", "note": "[(3S)-3-[({[5-chloro-1-(2-chlorobenzyl)-4-hydroxy-2-oxo-1,2-dihydropyridin-3-yl]amino}carbonyl)amino]-3-(4-methylphenyl)propanoic acid]", "values": [{"measurement": "IC50", "setting": "Table 6, 30 minutes at 37° C.", "value": 0.006, "unit": "µM"}]}, {"compound": "Cc1ccc([C@H](CC(=O)O)NC(=O)Nc2cccn(Cc3ccc(Cl)cc3Br)c2=O)cc1", "values": [{"measurement": "IC50", "setting": "Table 4, 30 minutes at 37° C.", "value": 1, "unit": "µM"}]}, {"compound": "Cc1ccc([C@H](CC(=O)O)NC(=O)Nc2c(Nc3cc(C)no3)ccn(Cc3ccccc3Cl)c2=O)cc1", "values": [{"measurement": "IC50", "setting": "Table 3, 30 minutes at 37° C.", "value": 0.015, "unit": "µM"}]}, {"compound": "Cc1ccc([C@@H](NC(=O)Nc2c(O)c(C)cn(Cc3ccccc3Cl)c2=O)[C@H](C)C(=O)O)cc1", "values": [{"measurement": "IC50", "setting": "[2]", "value": 1.5, "unit": "µM"}]}, {"compound": "Cc1ccc([C@H](CC(=O)O)N(C)C(=O)Nc2c(O)ccn(Cc3ccccc3Cl)c2=O)cc1", "values": [{"measurement": "IC50", "setting": "[1]", "value": 0.4, "unit": "µM"}]}]}
